One assay addresses MOZ-KAT6A (Homo sapiens (Human), UniProt Q92794). Put plainly: biochemical.
A further assay has as its target HBO1-KAT7 (Homo sapiens (Human), UniProt O95251). Put plainly: biochemical.
Another assay has as its target KAT6A (Homo sapiens (Human), UniProt Q92794). Put plainly: KAT assay protocol (SAMDI mass spectrometry), KAT6A. It counts as biochemical. The following applies: for inhibition at 1 µM: 1 μM compound; for IC50: KAT6A IC50 at 1 μM AcCoA, 1 μM AcCoA; for Ki: 10 μM AcCoA, Morrison equation. Here is the method: Biological Assay Section 1 KAT Assay Protocol:
A. Compound Preparation • 1. Prepare 10 mM stock solutions in 100% DMSO from solid material • 2. Serial dilute 10 mM, 1 mM or 0.1 mM compound stocks 3-fold in 100% DMSO for 11-point dose response
B. Reagent Preparation • 1. Prepare 1× assay buffer containing 10 mM Tris HCL pH 8.0, 2.5 mM NaCl, 0.5 mM EDTA, 0.005% BSG and 0.02% Tween-20 • 2. Dilute Histone peptide (CPC Scientific) and AcCoA (Sigma) together in assay buffer to 2×. • 3. Dilute KAT enzyme in assay buffer to 2×.
C. Enzyme Reaction • 1. Final reaction conditions for each KAT assay in a 20 ul assay reaction volume: • i. […] Add 0.5 ul of diluted compound to the assay plate (384-well V-bottom polypropylene plates) or 0.5 ul of DMSO for control wells. • 3. Add 10 ul of 2× Histone peptide/2× AcCoA mix to the assay plate. • 4. Add 10 ul of 2× enzyme to the assay plate. • 5. Stop the reaction after the indicated time with the addition of 2 ul of 5% formic acid • 6. Each reaction was analyzed using self-assembled monolayer desorption/ionization time-of-flight mass spectrometry (Mrksich, Milan (2008) Mass Spectrometry of Self-Assembled Monolayers: A New Tool for Molecular Surface Science ACS Nano 2008 2 (1), 7-18; SAMDI Tech, Inc. (Chicago, IL)). • 7. Area under the curve (AUC) for both substrate and product peaks was determined for KAT6A at M.W. 2723 [Substrate+H]^+ and 2765 [Product+H]^+ with a +/−1 Da tolerance, respectively. • 8. Percent conversion to product was calculated by: AUCProduct/(AUCSubstrate+AUCProduct).
D. Data Analysis • 1. IC50 values were determined by fitting the % conversion at each inhibitor concentration to the 4-parameter IC50 equation using Pfizer proprietary curve fitting software. • 2. Ki values were determined by fitting the % conversion at each inhibitor concentration to the Morrison equation for tightbinding competitive inhibitors using Pfizer proprietary curve fitting software. Materials
KAT enzymes were expressed using a baculovirus expression system and purified at Pfizer, La Jolla. Histone H3 (1-21) peptide ([…], SEQ ID NO:3) was purchased from CPC Scientific (Sunnyvale, CA). Acetyl coenzyme A was purchased from Sigma-Aldrich (St. Louis, MO). All other biochemical reagents were purchased from Sigma-Aldrich or ThermoFisher Scientific (Waltham, MA).
[…] 10 ul of 2× Histone peptide/AcCoA mix was added to a 384-well V-bottom polypropylene assay plate containing 0.5 ul of serially diluted test compound in 100% dimethyl sulfoxide (DMSO). To start the reaction, 10 ul of 2× enzyme solution was added to the assay plate. KAT assays were terminated after 30-60 minutes with the addition of 2 ul of 5% formic acid. KAT6A used histone H3 (1-21) peptide. The final enzyme concentration for KAT6A was 15 nM. Each reaction was analyzed using self-assembled monolayer desorption/ionization time-of-flight mass spectrometry (Mrksich, Milan (2008) Mass Spectrometry of Self-Assembled Monolayers: A New Tool for Molecular Surface Science ACS Nano 2008 2 (1), 7-18; SAMDI Tech, Inc. (Chicago, IL)).
Area under the curve (AUC) for both substrate and product peaks was determined for KAT6A at M.W. 2723 [Substrate+H]^+ and 2765 [Product+H]^+ with a +/−1 Da tolerance, respectively. Percent conversion to product was calculated by: AUCProduct/(AUCSubstrate+AUCProduct). IC50 values were determined by fitting the % conversion at each inhibitor concentration to the 4-parameter IC50 equation using Pfizer proprietary curve fitting software. Ki values were determined by fitting the % conversion at each inhibitor concentration to the Morrison equation for tightbinding competitive inhibitors using Pfizer proprietary curve fitting software.

A further assay concerns the target TIP60-KAT5 (Homo sapiens (Human), UniProt Q92993). In words: biochemical.
[1] abbreviates: read-out: KAT6A Ki at 10 μM AcCoA.

Molecules are shown by their SMILES. Like-named read-outs stand apart in the source and are kept apart here.

Sequence of KAT6A (Q92794 whole entry): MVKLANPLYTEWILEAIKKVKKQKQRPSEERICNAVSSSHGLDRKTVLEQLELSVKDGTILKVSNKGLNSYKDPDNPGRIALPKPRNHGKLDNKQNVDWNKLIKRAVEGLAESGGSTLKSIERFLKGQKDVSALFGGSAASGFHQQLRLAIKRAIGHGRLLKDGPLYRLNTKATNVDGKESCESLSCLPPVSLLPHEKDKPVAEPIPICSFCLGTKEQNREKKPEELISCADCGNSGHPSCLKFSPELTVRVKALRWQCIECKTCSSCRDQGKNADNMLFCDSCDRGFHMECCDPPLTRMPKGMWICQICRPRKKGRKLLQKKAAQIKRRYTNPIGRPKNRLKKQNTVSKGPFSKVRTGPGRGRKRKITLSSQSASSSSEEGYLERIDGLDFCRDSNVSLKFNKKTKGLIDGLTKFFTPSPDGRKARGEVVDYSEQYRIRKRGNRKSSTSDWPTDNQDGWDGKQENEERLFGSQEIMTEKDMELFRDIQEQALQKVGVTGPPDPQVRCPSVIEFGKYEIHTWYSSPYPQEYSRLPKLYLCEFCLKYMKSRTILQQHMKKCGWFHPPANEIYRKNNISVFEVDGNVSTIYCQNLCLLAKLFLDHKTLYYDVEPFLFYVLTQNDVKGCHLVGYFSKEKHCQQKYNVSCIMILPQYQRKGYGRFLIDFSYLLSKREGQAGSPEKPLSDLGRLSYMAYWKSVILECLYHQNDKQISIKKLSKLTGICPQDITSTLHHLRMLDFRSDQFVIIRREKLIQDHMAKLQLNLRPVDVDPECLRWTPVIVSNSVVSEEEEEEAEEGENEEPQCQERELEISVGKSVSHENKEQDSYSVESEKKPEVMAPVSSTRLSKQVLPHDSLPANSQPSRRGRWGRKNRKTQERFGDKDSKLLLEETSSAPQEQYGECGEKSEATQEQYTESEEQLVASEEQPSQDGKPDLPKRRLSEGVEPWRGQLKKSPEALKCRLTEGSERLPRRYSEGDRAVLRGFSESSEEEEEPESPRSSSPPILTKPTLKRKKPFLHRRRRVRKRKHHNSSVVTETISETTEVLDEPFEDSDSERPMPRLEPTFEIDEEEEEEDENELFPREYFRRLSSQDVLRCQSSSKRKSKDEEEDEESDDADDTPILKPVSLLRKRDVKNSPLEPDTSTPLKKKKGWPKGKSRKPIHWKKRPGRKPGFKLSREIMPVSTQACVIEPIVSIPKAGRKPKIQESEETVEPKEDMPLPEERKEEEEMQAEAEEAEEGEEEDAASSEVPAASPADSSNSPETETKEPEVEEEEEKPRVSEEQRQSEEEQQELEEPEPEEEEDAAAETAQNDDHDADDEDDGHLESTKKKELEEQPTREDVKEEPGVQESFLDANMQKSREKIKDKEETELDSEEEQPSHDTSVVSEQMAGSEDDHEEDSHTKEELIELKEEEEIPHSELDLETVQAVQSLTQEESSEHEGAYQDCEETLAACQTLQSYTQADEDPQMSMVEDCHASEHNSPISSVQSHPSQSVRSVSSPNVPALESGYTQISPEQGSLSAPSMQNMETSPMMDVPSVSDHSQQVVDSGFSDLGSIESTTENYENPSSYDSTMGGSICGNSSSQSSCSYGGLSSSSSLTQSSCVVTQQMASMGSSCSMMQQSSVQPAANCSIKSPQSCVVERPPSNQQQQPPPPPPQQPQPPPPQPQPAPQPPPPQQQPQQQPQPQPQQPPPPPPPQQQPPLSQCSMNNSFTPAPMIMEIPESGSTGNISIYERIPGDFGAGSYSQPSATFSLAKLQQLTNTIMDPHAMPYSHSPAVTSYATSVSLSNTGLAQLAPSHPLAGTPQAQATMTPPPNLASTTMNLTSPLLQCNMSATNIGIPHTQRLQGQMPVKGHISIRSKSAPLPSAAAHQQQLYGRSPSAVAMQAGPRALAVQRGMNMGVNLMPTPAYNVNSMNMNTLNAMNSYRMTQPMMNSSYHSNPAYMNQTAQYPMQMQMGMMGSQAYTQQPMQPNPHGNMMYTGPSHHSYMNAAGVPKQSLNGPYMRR
Sequence of HBO1-KAT7 (O95251 other isoform, or with tags, fused parts or gaps): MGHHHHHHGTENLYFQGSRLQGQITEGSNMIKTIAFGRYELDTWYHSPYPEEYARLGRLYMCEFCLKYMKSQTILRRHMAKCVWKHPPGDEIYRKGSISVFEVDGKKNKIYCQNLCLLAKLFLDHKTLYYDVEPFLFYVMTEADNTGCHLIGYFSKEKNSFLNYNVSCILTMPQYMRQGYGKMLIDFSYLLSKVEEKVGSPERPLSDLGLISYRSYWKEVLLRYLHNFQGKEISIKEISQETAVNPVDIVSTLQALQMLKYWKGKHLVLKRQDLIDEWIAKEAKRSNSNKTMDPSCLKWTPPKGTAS
Sequence of TIP60-KAT5 (Q92993 other isoform, or with tags, fused parts or gaps): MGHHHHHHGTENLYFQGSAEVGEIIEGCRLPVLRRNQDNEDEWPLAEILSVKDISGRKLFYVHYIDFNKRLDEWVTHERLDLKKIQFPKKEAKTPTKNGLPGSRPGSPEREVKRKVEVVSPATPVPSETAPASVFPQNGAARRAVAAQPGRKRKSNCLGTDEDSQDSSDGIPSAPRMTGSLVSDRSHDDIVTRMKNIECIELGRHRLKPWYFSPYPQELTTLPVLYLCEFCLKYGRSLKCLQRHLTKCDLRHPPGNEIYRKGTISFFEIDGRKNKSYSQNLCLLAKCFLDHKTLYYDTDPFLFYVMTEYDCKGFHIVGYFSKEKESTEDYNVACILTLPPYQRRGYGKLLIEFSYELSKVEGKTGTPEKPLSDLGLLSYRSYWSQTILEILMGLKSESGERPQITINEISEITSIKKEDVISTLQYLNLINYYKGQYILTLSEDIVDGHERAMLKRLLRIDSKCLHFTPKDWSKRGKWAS
Sequence of MOZ-KAT6A (Q92794 other isoform, or with tags, fused parts or gaps): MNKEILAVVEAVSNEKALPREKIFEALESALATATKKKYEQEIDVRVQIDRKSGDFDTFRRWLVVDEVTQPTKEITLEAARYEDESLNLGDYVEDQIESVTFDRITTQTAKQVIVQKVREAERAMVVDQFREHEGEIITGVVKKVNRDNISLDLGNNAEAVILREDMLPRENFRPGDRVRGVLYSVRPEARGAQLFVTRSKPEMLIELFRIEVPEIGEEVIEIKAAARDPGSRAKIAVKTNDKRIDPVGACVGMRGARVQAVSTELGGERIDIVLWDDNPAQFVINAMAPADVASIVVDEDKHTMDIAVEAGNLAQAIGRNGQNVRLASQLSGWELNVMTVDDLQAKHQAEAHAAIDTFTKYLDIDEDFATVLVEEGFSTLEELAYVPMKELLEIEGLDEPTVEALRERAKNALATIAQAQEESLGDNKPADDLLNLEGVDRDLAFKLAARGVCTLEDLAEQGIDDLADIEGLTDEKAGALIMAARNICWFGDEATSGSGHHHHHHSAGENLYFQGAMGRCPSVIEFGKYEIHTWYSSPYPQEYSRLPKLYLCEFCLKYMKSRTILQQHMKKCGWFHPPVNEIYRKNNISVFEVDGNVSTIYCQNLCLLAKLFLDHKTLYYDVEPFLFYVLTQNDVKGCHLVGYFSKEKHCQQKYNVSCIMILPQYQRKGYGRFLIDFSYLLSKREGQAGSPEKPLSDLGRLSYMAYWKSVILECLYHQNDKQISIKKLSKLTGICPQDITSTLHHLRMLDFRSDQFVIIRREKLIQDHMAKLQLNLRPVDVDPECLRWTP

As to `COc1cc(Cn2cccn2)cc2onc(NS(=O)(=O)C3CCCCC3)c12` [Example 124], the IC50 at MOZ-KAT6A was 30 nM; on HBO1-KAT7, 440 nM; against KAT6A, 117 nM; against TIP60-KAT5, 2400 nM. The inhibition at 1 µM against KAT6A amounted to 88%.

Regarding `COc1cc(Cn2cccn2)cc2onc(NS(=O)(=O)CCC3CCCCO3)c12` (stereo not shown) [Example 108], the inhibition at 1 µM against KAT6A was determined as 67%.

For the molecule `COc1cc(Cn2cccn2)cc2onc(NS(=O)(=O)[C@H]3C[C@H]3c3ccccc3)c12` [Example 28], the Ki at KAT6A (setting [1]) was 14.2 nM.

Regarding `COc1cc(Cn2cccn2)cc2onc(NS(=O)(=O)CC3(OC(C)C)CCCO3)c12` (stereo not shown) [Example 122], on KAT6A, the inhibition at 1 µM stood at 85% and 38.4 nM corresponded to half-maximal inhibition (IC50). The Ki on KAT6A (KAT6A Ki at 10 μM AcCoA) was determined as 14.9 nM.

Regarding `COc1cc(Cn2cccn2)cc2onc(NS(=O)(=O)C3CC3)c12` [Example 13], on KAT6A (setting [1]), the inhibitory constant (Ki) was 224 nM.

`COc1cc(Cn2cccn2)cc2onc(NS(=O)(=O)CCOCC3CCC3)c12` [Example 126] displayed a concentration for half-maximal inhibition (IC50) against KAT6A of 133 nM.

As to `COc1cc(Cn2cccn2)cc2onc(NS(=O)(=O)CC3CN(C)CCO3)c12` (stereo not shown) [Example 119], on KAT6A, the inhibition at 1 µM worked out at 58%.

As for `COc1cc(Cn2cccn2)cc2onc(NS(=O)(=O)CC3CC(C)C3)c12` (stereo not shown) [Example 60], at KAT6A, the inhibition at 1 µM was determined as 42%.

For `CCOC1(CS(=O)(=O)Nc2noc3cc(Cn4cccn4)cc(OC)c23)CCC1` [Example 11], the inhibition at 1 µM at KAT6A came to 45%. Besides, the inhibition constant (Ki) at KAT6A (KAT6A Ki at 10 μM AcCoA) worked out at 371 nM.

On to `COc1cc(Cn2cccn2)cc2onc(NS(=O)(=O)CC34CCCN(CC3)C4)c12` (stereo not shown) [Example 105], for which the inhibition at 1 µM against KAT6A is 101%.

For `COc1cc(Cn2cccn2)cc2onc(NS(=O)(=O)CC3CCN(C(C)=O)CC3)c12` [Example 92], the inhibition at 1 µM at KAT6A stood at 40%.

In the case of `COc1cc(Cn2cccn2)cc2onc(NS(=O)(=O)C3CCC3)c12` [Example 12], at KAT6A, the inhibition at 1 µM was 59%. For the same molecule, on KAT6A (setting [1]), the Ki is 199 nM.

With `COc1cc(Cn2cccn2)cc2onc(NS(=O)(=O)CC3CC3(F)F)c12` (stereo not shown) [Example 66], the inhibition at 1 µM at KAT6A stood at 88%.

Consider `COc1cc(Cn2cccn2)cc2onc(NS(=O)(=O)CC3CCC4(CCC4)O3)c12` (stereo not shown) [Example 121], for which, at KAT6A, the inhibition at 1 µM turned out to be 75%.

Regarding `COc1cc(Cn2cccn2)cc2onc(NS(=O)(=O)CC(OC)C3CCCC3)c12` (stereo not shown) [Example 70], the inhibition at 1 µM against KAT6A is 80%.

In the case of `COc1cc(Cn2cccn2)cc2onc(NS(=O)(=O)CCCC3CC3)c12` [Example 58], the inhibition at 1 µM against KAT6A was 87%.

As to `COc1cc(Cn2cccn2)cc2onc(NS(=O)(=O)CCC3CCOCC3)c12` [Example 117], at KAT6A, the inhibition at 1 µM turned out to be 91%.

As to `COc1cc(Cn2cccn2)cc2onc(NS(=O)(=O)CC3CCCCC3)c12` [Example 123], the half-inhibitory concentration (IC50) against MOZ-KAT6A is 15 nM; at HBO1-KAT7, 1260 nM; against KAT6A, 28.9 nM; against TIP60-KAT5, 9040 nM. On KAT6A, the inhibition at 1 µM is 85%. The affinity at KAT6A (KAT6A Ki at 10 μM AcCoA) corresponds to a Ki of 5.44 nM.

Turning to `COc1cc(Cn2cccn2)cc2onc(NS(=O)(=O)CC3CC4(CCC4)C3)c12` [Example 38], on KAT6A, the inhibition at 1 µM was found to be 92%.

`COc1cc(Cn2cccn2)cc2onc(NS(=O)(=O)CC3CCCOC3)c12` (stereo not shown) [Example 4] gave an IC50 at KAT6A of 349 nM.

Regarding `COc1cc(Cn2cccn2)cc2onc(NS(=O)(=O)C3CC(CC#N)C3)c12` (stereo not shown) [Example 14], the affinity at KAT6A (KAT6A Ki at 10 μM AcCoA), expressed as Ki, was 160 nM.

Molecule `COc1cc(Cn2cccn2)cc2onc(NS(=O)(=O)CC3CCCO3)c12` (stereo not shown) [Example 6] registered an IC50 against KAT6A of 371 nM.

For `COc1cc(Cn2cccn2)cc2onc(NS(=O)(=O)CCC3CCC3)c12` [Example 29], the inhibition at 1 µM against KAT6A was found to be 103%. For the same molecule, the Ki at KAT6A (KAT6A Ki at 10 μM AcCoA) came out at 13.1 nM.

Values taken from patent US12545669B2, “Cycloalkyl and heterocycloalkyl benzisoxazole sulfonamide derivatives” (Pfizer Inc., priority 2019, dated 2026).
